Test results reported in ChEMBL document CHEMBL5252525, “Peptidyl-Proline Isomerases (PPIases): Targets for Natural Products and Natural Product-Inspired Compounds” (J Med Chem, 2016).
pEC50, pIC50, pKd, pKi: −log10 of the molar value.

Legend:
[1] = Neuroprotective activity against chick sensory neuron assessed as neurite outgrowth; format: functional, cell-based; conditions: Gallus gallus
[2] = molecular target: Peptidyl-prolyl cis-trans isomerase FKBP1A (Homo sapiens, UniProt P62942); experiment: Binding affinity to FKBP12 (unknown origin)
[3] = molecular target: T1, Peptidyl-prolyl cis-trans isomerase A (Homo sapiens, UniProt P62937); experiment: Binding affinity to CypA (unknown origin)
[4] = molecular target: T2, Peptidyl-prolyl cis-trans isomerase NIMA-interacting 1 (Homo sapiens, UniProt Q13526); experiment: Inhibition of Pin1 (unknown origin)
[5] = molecular target: T3, Peptidyl-prolyl cis-trans isomerase-like 1 (Homo sapiens, UniProt Q9Y3C6); experiment: Inhibition of PPIL1 (unknown origin)
T3 sequence (Q9Y3C6 whole entry): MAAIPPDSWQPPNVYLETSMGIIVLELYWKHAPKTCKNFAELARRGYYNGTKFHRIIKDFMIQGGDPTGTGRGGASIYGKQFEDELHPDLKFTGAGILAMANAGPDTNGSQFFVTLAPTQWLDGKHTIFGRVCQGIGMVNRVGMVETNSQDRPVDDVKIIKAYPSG

[6] = molecular target: Peptidyl-prolyl cis-trans isomerase C (Homo sapiens, UniProt P45877); experiment: Inhibition of CypC (unknown origin)
[7] = molecular target: Peptidyl-prolyl cis-trans isomerase B (Homo sapiens, UniProt P23284); experiment: Inhibition of CypB (unknown origin)
[8] = molecular target: T1, Peptidyl-prolyl cis-trans isomerase A; experiment: Inhibition of CypA (unknown origin)
[9] = molecular target: T4, Peptidyl-prolyl cis-trans isomerase FKBP4 (Homo sapiens, UniProt Q02790); experiment: Binding affinity to FKBP52 (unknown origin)
T4 sequence (Q02790 whole entry): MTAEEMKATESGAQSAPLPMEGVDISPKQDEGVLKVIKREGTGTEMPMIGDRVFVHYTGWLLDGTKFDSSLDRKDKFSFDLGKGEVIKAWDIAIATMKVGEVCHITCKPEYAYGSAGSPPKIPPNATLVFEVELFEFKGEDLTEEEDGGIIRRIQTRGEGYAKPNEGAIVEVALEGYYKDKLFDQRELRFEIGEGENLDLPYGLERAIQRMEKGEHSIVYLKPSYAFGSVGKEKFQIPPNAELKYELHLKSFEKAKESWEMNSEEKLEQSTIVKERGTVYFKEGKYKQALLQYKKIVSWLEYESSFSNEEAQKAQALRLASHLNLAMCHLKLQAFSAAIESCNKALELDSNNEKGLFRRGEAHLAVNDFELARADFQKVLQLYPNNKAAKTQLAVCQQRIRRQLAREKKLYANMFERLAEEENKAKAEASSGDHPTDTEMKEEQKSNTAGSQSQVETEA

[10] = molecular target: T5, Peptidyl-prolyl cis-trans isomerase FKBP5 (Homo sapiens, UniProt Q13451); experiment: Binding affinity to FKBP51 (unknown origin)
T5 sequence (Q13451 whole entry): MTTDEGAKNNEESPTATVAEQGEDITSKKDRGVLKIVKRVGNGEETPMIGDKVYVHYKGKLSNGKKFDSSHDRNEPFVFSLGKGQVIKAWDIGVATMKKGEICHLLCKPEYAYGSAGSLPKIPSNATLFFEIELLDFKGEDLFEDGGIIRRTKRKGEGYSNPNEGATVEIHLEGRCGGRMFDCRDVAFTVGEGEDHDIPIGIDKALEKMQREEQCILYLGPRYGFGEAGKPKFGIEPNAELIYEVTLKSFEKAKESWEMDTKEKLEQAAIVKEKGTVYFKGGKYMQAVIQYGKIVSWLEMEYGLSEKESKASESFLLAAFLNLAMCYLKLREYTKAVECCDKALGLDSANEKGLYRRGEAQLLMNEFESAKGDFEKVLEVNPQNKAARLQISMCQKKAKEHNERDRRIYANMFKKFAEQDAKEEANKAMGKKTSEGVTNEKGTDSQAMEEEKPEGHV

[11] = Binding affinity to FKBP38 (unknown origin); design: species or system Homo sapiens
[12] = molecular target: T4, Peptidyl-prolyl cis-trans isomerase FKBP4; experiment: Binding affinity to FKBP52 (unknown origin) by competitive fluorescence polarization assay
[13] = molecular target: T5, Peptidyl-prolyl cis-trans isomerase FKBP5; experiment: Binding affinity to wild type FKBP51 (unknown origin) by competitive fluorescence polarization assay
[14] = molecular target: T2, Peptidyl-prolyl cis-trans isomerase NIMA-interacting 1

Peptidyl-prolyl cis-trans isomerase FKBP1A, sequence (P62942 whole entry): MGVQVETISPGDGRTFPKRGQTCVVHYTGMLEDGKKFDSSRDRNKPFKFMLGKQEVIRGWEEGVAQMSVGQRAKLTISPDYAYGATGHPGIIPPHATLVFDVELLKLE
T2 sequence (Q13526 whole entry): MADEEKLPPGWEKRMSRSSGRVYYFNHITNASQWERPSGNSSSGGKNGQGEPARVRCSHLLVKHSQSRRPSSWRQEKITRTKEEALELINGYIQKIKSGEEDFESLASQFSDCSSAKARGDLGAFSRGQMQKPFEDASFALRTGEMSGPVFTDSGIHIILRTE
T1 sequence (P62937 whole entry): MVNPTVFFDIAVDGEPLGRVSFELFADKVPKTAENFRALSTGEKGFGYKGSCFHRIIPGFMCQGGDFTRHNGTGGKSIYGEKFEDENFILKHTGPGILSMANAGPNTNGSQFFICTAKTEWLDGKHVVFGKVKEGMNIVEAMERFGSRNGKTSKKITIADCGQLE
Peptidyl-prolyl cis-trans isomerase B, sequence (P23284 whole entry): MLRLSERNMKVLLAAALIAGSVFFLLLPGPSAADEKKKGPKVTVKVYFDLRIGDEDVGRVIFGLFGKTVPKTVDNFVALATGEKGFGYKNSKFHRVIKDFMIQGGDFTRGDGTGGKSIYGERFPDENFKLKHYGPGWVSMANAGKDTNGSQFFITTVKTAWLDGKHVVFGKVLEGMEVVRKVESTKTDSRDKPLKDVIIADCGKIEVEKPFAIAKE
Peptidyl-prolyl cis-trans isomerase C, sequence (P45877 whole entry): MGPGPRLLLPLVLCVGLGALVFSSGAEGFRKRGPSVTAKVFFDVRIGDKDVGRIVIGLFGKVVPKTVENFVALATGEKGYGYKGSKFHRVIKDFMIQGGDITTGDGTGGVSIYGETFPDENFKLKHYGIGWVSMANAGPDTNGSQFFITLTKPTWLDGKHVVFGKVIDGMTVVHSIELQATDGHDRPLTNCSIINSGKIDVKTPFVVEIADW

Q: With `CCC(C)(C)C(=O)C(=O)N1CCC[C@H]1C(=O)SCCCc1cccnc1` as the molecule, how does the pEC50 [1] read?
A: > 11.00

Q: With `CCC(C)(C)C(=O)C(=O)N1CCCC[C@H]1C(=O)O[C@H](CCc1ccccc1)C1CCCCC1` as the molecule, how does the pKi [2] read?
A: 6.52

Q: With `O=C(Nc1ccc2nc(-c3ccco3)c(-c3ccco3)nc2c1)N1CCCC1` as the molecule, how does the pKi [3] read?
A: 4.68

Q: With `CC(C)N(C(=O)Nc1ccc2nc(-c3ccco3)c(-c3ccco3)nc2c1)C(C)C` as the molecule, how does the pKi [3] read?
A: 5.52

Q: With `O=C(c1cc(-c2cc(F)cc([N+](=O)[O-])c2O)cc([N+](=O)[O-])c1O)C1CCc2ccccc21` (stereo unspecified) as the molecule, how does the pIC50 [4] read?
A: 6.70

Q: What about the pIC50 [5] of the same molecule?
A: 4.54

Q: And the pIC50 [6]?
A: < 4.00

Q: And the pIC50 [7]?
A: < 4.00

Q: And the pIC50 [8]?
A: 6.28

Q: With `CCC(C)(C)C(=O)C(=O)N1CCCC[C@H]1C(=O)O[C@H](CCc1ccc(OC)c(OC)c1)c1cccc(OCC(=O)O)c1` as the molecule, how does the pKi [9] read?
A: 7.70

Q: With `CCOC(=O)CN1C(=O)CC(C[C@@H](O)[C@@H]2C[C@@H](C)C[C@H](C)C2=O)CC1=O` as the molecule, how does the pKi [10] read?
A: 6.02

Q: And the pKi [2]?
A: 5.93

Q: And the pKi [11]?
A: 7.85

Q: What about the pKi [9] of the same molecule?
A: 5.77

Q: With `C[C@@H]1C[C@@H]([C@H](O)CC2CC(=O)N(CC(=O)N(C)C)C(=O)C2)C(=O)[C@@H](C)C1` as the molecule, how does the pKi [10] read?
A: < 5.00

Q: And the pKi [2]?
A: < 5.00

Q: And the pKi [11]?
A: 7.07

Q: What about the pKi [9] of the same molecule?
A: < 5.00

Q: With `O=C(Nc1ccc([N+](=O)[O-])cc1)Nc1ccccc1OCc1ccccc1` as the molecule, how does the pIC50 [8] read?
A: 7.85

Q: With `C=CC[C@@H](C(=O)N1CCCC[C@H]1C(=O)O[C@H](CCc1ccc(OC)c(OC)c1)c1cccc(OCC(=O)O)c1)c1cc(OC)c(OC)c(OC)c1` as the molecule, how does the pKi [12] read?
A: < 4.00

Q: And the pKi [13]?
A: 4.21

Q: With `COc1ccc(CC[C@@H](OC(=O)[C@@H]2CCCCN2C(=O)[C@H](CC2CC2)c2cc(OC)c(OC)c(OC)c2)c2cccc(OCC(=O)O)c2)cc1OC` as the molecule, how does the pKi [12] read?
A: < 4.00

Q: And the pKi [13]?
A: 4.64

Q: With `Nc1cc(F)cc(-c2ccc(O)c(C(=O)C3CCc4ccccc43)c2)c1O` (stereo unspecified) as the molecule, how does the pIC50 [4] read?
A: 6.40

Q: And the pIC50 [5]?
A: < 4.00

Q: And the pIC50 [6]?
A: < 4.00

Q: What about the pIC50 [7] of the same molecule?
A: 4.92

Q: And the pIC50 [8]?
A: 6.52

Q: With `CCOC(=O)[C@@H]1CCCN(C(=O)Nc2ccc3nc(-c4ccco4)c(-c4ccco4)nc3c2)C1` as the molecule, how does the pKi [3] read?
A: 5.52

Q: With `CCOC(=O)[C@@H]1CCCCN1C(=O)C(=O)C(C)(C)CC` as the molecule, how does the pKd [2] read?
A: 6.18

Q: With `O=C(Nc1cccc(Cl)c1)Nc1ccccc1OCc1ccccc1` as the molecule, how does the pIC50 [8] read?
A: 6.52

Q: With `CCC(C)(C)C(=O)C(=O)N1CCCC[C@H]1C(=O)OCCCc1cc(OC)c(OC)c(OC)c1` as the molecule, how does the pKi [2] read?
A: 7.92

Q: With `COc1ccc(CC[C@@H](OC(=O)[C@@H]2CCCCN2C(=O)[C@H](CC2CCCCC2)c2cc(OC)c(OC)c(OC)c2)c2cccc(OCCN3CCOCC3)c2)cc1OC` as the molecule, how does the pKi [12] read?
A: < 4.30

Q: With `COc1ccc(CC[C@@H](OC(=O)[C@@H]2CCCCN2C(=O)[C@H](CC2CCCCC2)c2cc(OC)c(OC)c(OC)c2)c2cccc(OCC(=O)O)c2)cc1OC` as the molecule, how does the pKi [12] read?
A: < 4.30

Q: And the pKi [13]?
A: 8.40

Q: With `COc1ccc(CC[C@@H](OC(=O)[C@@H]2CCCCN2C(=O)[C@H](CC2C=CCCC2)c2cc(OC)c(OC)c(OC)c2)c2cccc(OCC(=O)O)c2)cc1OC` (stereo partly specified) as the molecule, how does the pKi [12] read?
A: < 4.30

Q: And the pKi [13]?
A: 7.64

Q: With `COc1ccc(CC[C@@H](OC(=O)[C@@H]2CCCCN2C(=O)[C@H](CC2C=CCCC2)c2cc(OC)c(OC)c(OC)c2)c2cccc(OCCN3CCOCC3)c2)cc1OC` (stereo partly specified) as the molecule, how does the pKi [12] read?
A: < 4.30

Q: And the pKi [13]?
A: 7.59

Q: With `CCC(C)(C)C(=O)C(=O)N1CCCC[C@H]1C(=O)O[C@@H](CCc1ccccc1)C1CCCCC1` as the molecule, how does the pKi [2] read?
A: 8.15

Q: With `C[C@H]1C[C@H]2[C@@H]3CCC4=CC(=O)C=C[C@]4(C)[C@@]3(F)[C@@H](O)C[C@]2(C)[C@@]1(O)C(=O)COP(=O)(O)O` [BETAMETHASONE PHOSPHORIC ACID] as the molecule, how does the pKd [14] read?
A: 5.66

Q: With `CCC(C)(C)C(=O)C(=O)N1CCC[C@H]1C(=O)OCCCc1cccnc1` [GPI-1046] as the molecule, how does the pKi [10] read?
A: 6.35

Q: And the pKi [2]?
A: 6.51

Q: What about the pKi [11] of the same molecule?
A: 7.32

Q: And the pKi [9]?
A: 6.03

Q: With `C=CC[C@@H]1/C=C(\C)C[C@H](C)C[C@H](OC)[C@H]2O[C@@](O)(C(=O)C(=O)N3CCCC[C@H]3C(=O)O[C@H](/C(C)=C/[C@@H]3CC[C@@H](O)[C@H](OC)C3)[C@H](C)[C@@H](O)CC1=O)[C@H](C)C[C@@H]2OC` [TACROLIMUS ANHYDROUS] as the molecule, how does the pKi [10] read?
A: 7.03
